{"source": "patent US8530621B2", "about": "“Combined preparation of a thiazide diuretic and a loop diuretic” (The Regents of the University of California, priority 2007, dated 2013)", "molecules": {"B1": {"name": "F3-Q381V: talin F3 domain mutant Q381V (protein)", "chain": "GVSFFLVKEKMKGKNKLVPRLLGITKECVMRVDEKTKEVIQEWSLTNIKRWAASPKSFTLDFGDYQDGYYSVVTTEGEQIAQLIAGYIDIILKKKKS"}, "B2": {"name": "F3-L325R: talin F3 domain mutant L325R (protein)", "chain": "B1 chain with L17R, V73Q"}, "B3": {"name": "talin (W359A): talin F3 domain mutant W359A, inhibits binding of the MD-site of the β3 tail (protein)", "chain": "B1 chain with W51A, V73Q"}}, "key": {"[1]": {"experiment": "Solubility of peptide at the concentrations used for NMR", "assay_type": "physicochemical", "text": "NMR studies of the interaction with full-length β3 cytoplasmic tail were more challenging. The off-rates of the complex correspond to an ‘intermediate exchange’ regime, with peaks broadening and disappearing rather than changing position. It was, however, possible to define perturbed residues by plotting the percentage decrease in peak height upon addition of the peptide (FIGS. 1D and 8). The perturbed residues are essentially the sum of those affected by the MD peptide and the MP peptide (FIGS. 1 and 8). The β3 tail/talin F3 interactions can thus be considered in two parts, one corresponding to the previously defined interaction at the MD-site, the other corresponding to the MP-site. […] This, together with exchange broadening of lines, made the β3 tail an unsuitable ligand for studying the structure of the talin-integrin complex by NMR at atomic resolution."}, "talin F3": {"target": "T1, talin F3 (Mus musculus, UniProt P26039)", "T1 construct": "labeled talin F3 domain was expressed and purified as described previously (de Pereda et al., 2005); made in house", "T1 sequence (P26039 309-405 limits assumed)": "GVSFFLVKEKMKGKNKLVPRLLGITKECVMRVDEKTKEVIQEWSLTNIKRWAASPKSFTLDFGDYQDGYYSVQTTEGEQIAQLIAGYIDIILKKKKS", "experiment": "1H-15N HSQC NMR titration of talin F3 with peptides", "assay_type": "binding", "details": "for perturbation of contact residues in the MP region: mutant chimeric peptides added to wild-type talin F3, MD site binding unchanged", "protocol": "(§1) Talin F3 L325R and Q381V mutants were titrated with the original β3/PIPKIγ chimera, while the effect of peptide mutations (F727A and F730A) was assessed using wild-type talin F3.\nWe set out to obtain a structural explanation for the unusual ability of the talin PTB domain to activate integrins. An initial exploration of the interactions was carried out by adding various tail-derived β3-integrin peptides to the F3 sub-domain of talin, while monitoring the chemical shift perturbations in ^1H-^15N HSQC NMR spectra. The peptide sequences and the nomenclature used are set out in FIG. 1A. The MP peptide corresponds to the N-terminal region of the cytoplasmic β-tail. A peptide comprised of the β-tail region previously visualized in the crystal structure (Garcia-Alvarez et al., 2003), is denoted MD; this peptide primarily causes chemical shift perturbations in strand S5 (de Pereda et al., 2005).\n(§2) ^1H-^15N-HSQC titrations were performed as previously described (de Pereda et al., 2005). Weighted shifts (Δδ(HN,N)) were calculated using the equation: Δδ(HN,N)=((ΔδHNWHN)^2+(ΔδNWN)^2)^1/2, where WHN and WN are weighting factors for the HN and N shifts respectively (WHN=1, WN=0.154) (Ayed et al., 2001) and Δδ=δbound−δfree. Talin F3 domains in complex with slow-exchanging peptides, as well as mutant F3 domains, were assigned by correlation to the wild-type talin F3 assignments (de Pereda et al., 2005) and confirmed using 3D gradient-enhanced [^1H-^15N]-NOESY-HSQC (τm=100 ms) spectra alone, or in combination with [^1H-^15N]-TOCSY-HSQC (τm=70 ms) spectra. ^13CO, ^13Cα and ^13Cβ shifts were obtained using a series of 2D ^1H-^15N-^13C experiments (Bersch et al., 2003). Bound peptide shifts were obtained using U—^15N,^2H F3 and unlabeled chimeric peptide (1.3:1). Both bound and unbound chimeric peptide shifts were assigned using 2D NOESY, TOCSY and COSY spectra. DOK PTB domain assignments were obtained previously (unpublished)."}, "β3/PIPKIγ chimera": {"system": "β3/PIPKIγ chimera", "sequence (as listed by the source, stated change not applied)": "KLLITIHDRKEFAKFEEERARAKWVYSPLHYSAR", "experiment": "1H-15N HSQC NMR titration of talin F3 mutants with chimeric peptide", "details": "talin F3 mutants titrated with the original β3/PIPKIγ chimera; MD site binding unchanged", "protocol": "as §1\nMutations to the contact residues in talin F3 (L325R, S365D, S379R, or Q381V) were also made to see if they disrupted the F3/MP interaction.\nas §2"}, "Talin F3 W359A": {"target": "T2, Talin F3 W359A (Mus musculus, UniProt P26039, W359A)", "T2 construct": "injected into the cell containing wildtype or mutant talin F3 domain; made in house", "T2 sequence (P26039 309-405 W359A limits assumed)": "as the sequence (P26039 309-405 limits assumed) above, with W51A counted along it", "experiment": "Isothermal titration calorimetry, chimeric peptide binding to talin F3 mutant", "details": "ITC, relative to wild type talin F3", "protocol": "Peptide concentrations were typically at 150 to 300 μM while protein concentrations ranged from 25 to 50 μM. For the W359A mutant, the protein concentration was 50 μM and the peptide concentration was 1 mM. Prior to ITC titrations, the peptides and proteins were in buffer consisting of 200 mM Tris, 300 mM NaCl, pH 7.5. All experiments were conducted at 23 degrees Celsius. […] The bottom panel is the binding curve, calculated using the software program Origin.\nThermodynamic parameters for the binding of WT and mutant talin F3 to the β3 chimeric peptides were measured using isothermal titration calorimetry (Table 2, FIG. 12). In general, mutations that disrupt the MP site, either in the β-tail or talin F3, have relatively little effect on the Kd values (Table 2). This probably arises because of a balance between enthalpy gain and entropy loss, consistent with stabilization of the MP helix on talin binding in the wild-type but not mutant structures. In sharp contrast, the talin (W359A) mutant, which inhibits binding of the MD-site of the β3 tail, reduced the affinity ˜1000 fold, similar to the effect of mutations in the NPxY region of the integrin tail, which abrogate MD binding (Ulmer et al., 2003).\nIsothermal titration calorimetry (ITC) was performed on a VP-ITC calorimeter (Microcal, Northampton, Mass.). […] Experimental data were analyzed using Microcal Origin software."}}, "note": "Positions count from the first letter of the chain named. In names and notes the source's numbering stands. Non-standard residues stand in square brackets, D forms with d. Residues, ends and D or L forms follow the SMILES beside them. No end group written: not given here. pY = N[C@@H](Cc1ccc(OP(=O)(O)O)cc1)C(=O)O"}
{"molecule": "KLLITIHDRKEFAKFEEERARAKWDTANNPLYKEATSTFTNITYRGT [full-length β3 tail]", "values": [{"measurement": "solubility", "setting": "[1]", "value": "limited solubility"}]}
{"molecule": "CC[C@H](C)[C@H](NC(=O)[C@H](CC(C)C)NC(=O)[C@H](CC(C)C)NC(=O)[C@H](CCCCN)NC(=O)[C@@H](N)CCCCN)C(=O)N[C@H](C(=O)N[C@H](C(=O)N[C@@H](Cc1c[nH]cn1)C(=O)N[C@@H](CC(=O)O)C(=O)N[C@@H](CCCNC(=N)N)C(=O)N[C@@H](CCCCN)C(=O)N[C@@H](CCC(=O)O)C(=O)N[C@@H](C)C(=O)N[C@@H](C)C(=O)N[C@@H](CCCCN)C(=O)N[C@@H](Cc1ccccc1)C(=O)N[C@@H](CCC(=O)O)C(=O)N[C@@H](CCC(=O)O)C(=O)N[C@@H](CCC(=O)O)C(=O)N[C@@H](CCCNC(=N)N)C(=O)N[C@@H](C)C(=O)N[C@@H](CCCNC(=N)N)C(=O)N[C@@H](C)C(=O)N[C@@H](CCCCN)C(=O)N[C@@H](Cc1c[nH]c2ccccc12)C(=O)N[C@H](C(=O)N[C@@H](Cc1ccc(OP(=O)(O)O)cc1)C(=O)N[C@@H](CO)C(=O)N1CCC[C@H]1C(=O)N[C@@H](CC(C)C)C(=O)N[C@@H](Cc1c[nH]cn1)C(=O)N[C@@H](Cc1ccc(O)cc1)C(=O)N[C@@H](CO)C(=O)N[C@@H](C)C(=O)N[C@@H](CCCNC(=N)N)C(=O)O)C(C)C)[C@@H](C)CC)[C@@H](C)O", "note": "[β3 chimera F727A] (H-KKLLITIHDRKEAAKFEEERARAKWV[pY]SPLHYSAR-OH; N-terminus and C-terminus assumed)", "values": [{"measurement": "perturbation of contact residues in the MP region", "setting": "talin F3", "value": "markedly reduced"}]}
{"molecule": "CC[C@H](C)[C@H](NC(=O)[C@H](CC(C)C)NC(=O)[C@H](CC(C)C)NC(=O)[C@H](CCCCN)NC(=O)[C@@H](N)CCCCN)C(=O)N[C@H](C(=O)N[C@H](C(=O)N[C@@H](Cc1c[nH]cn1)C(=O)N[C@@H](CC(=O)O)C(=O)N[C@@H](CCCNC(=N)N)C(=O)N[C@@H](CCCCN)C(=O)N[C@@H](CCC(=O)O)C(=O)N[C@@H](Cc1ccccc1)C(=O)N[C@@H](C)C(=O)N[C@@H](CCCCN)C(=O)N[C@@H](Cc1ccccc1)C(=O)N[C@@H](CCC(=O)O)C(=O)N[C@@H](CCC(=O)O)C(=O)N[C@@H](CCC(=O)O)C(=O)N[C@@H](CCCNC(=N)N)C(=O)N[C@@H](C)C(=O)N[C@@H](CCCNC(=N)N)C(=O)N[C@@H](C)C(=O)N[C@@H](CCCCN)C(=O)N[C@@H](Cc1c[nH]c2ccccc12)C(=O)N[C@H](C(=O)N[C@@H](Cc1ccc(OP(=O)(O)O)cc1)C(=O)N[C@@H](CO)C(=O)N1CCC[C@H]1C(=O)N[C@@H](CC(C)C)C(=O)N[C@@H](Cc1c[nH]cn1)C(=O)N[C@@H](Cc1ccc(O)cc1)C(=O)N[C@@H](CO)C(=O)N[C@@H](C)C(=O)N[C@@H](CCCNC(=N)N)C(=O)O)C(C)C)[C@@H](C)CC)[C@@H](C)O", "note": "[β3 chimera] (H-KKLLITIHDRKEFAKFEEERARAKWV[pY]SPLHYSAR-OH; N-terminus and C-terminus assumed)", "values": [{"measurement": "binding to talin (NMR)", "setting": "talin F3; 25° C.", "value": "bind to talin and form a tight, highly soluble 1:1 complex"}]}
{"molecule": "CC[C@H](C)[C@H](NC(=O)[C@H](CC(C)C)NC(=O)[C@H](CC(C)C)NC(=O)[C@H](CCCCN)NC(=O)[C@@H](N)CCCCN)C(=O)N[C@H](C(=O)N[C@H](C(=O)N[C@@H](Cc1c[nH]cn1)C(=O)N[C@@H](CC(=O)O)C(=O)N[C@@H](CCCNC(=N)N)C(=O)N[C@@H](CCCCN)C(=O)N[C@@H](CCC(=O)O)C(=O)N[C@@H](Cc1ccccc1)C(=O)N[C@@H](C)C(=O)N[C@@H](CCCCN)C(=O)N[C@@H](C)C(=O)N[C@@H](CCC(=O)O)C(=O)N[C@@H](CCC(=O)O)C(=O)N[C@@H](CCC(=O)O)C(=O)N[C@@H](CCCNC(=N)N)C(=O)N[C@@H](C)C(=O)N[C@@H](CCCNC(=N)N)C(=O)N[C@@H](C)C(=O)N[C@@H](CCCCN)C(=O)N[C@@H](Cc1c[nH]c2ccccc12)C(=O)N[C@H](C(=O)N[C@@H](Cc1ccc(OP(=O)(O)O)cc1)C(=O)N[C@@H](CO)C(=O)N1CCC[C@H]1C(=O)N[C@@H](CC(C)C)C(=O)N[C@@H](Cc1c[nH]cn1)C(=O)N[C@@H](Cc1ccc(O)cc1)C(=O)N[C@@H](CO)C(=O)N[C@@H](C)C(=O)N[C@@H](CCCNC(=N)N)C(=O)O)C(C)C)[C@@H](C)CC)[C@@H](C)O", "note": "[β3 chimera F730A] (H-KKLLITIHDRKEFAKAEEERARAKWV[pY]SPLHYSAR-OH; N-terminus and C-terminus assumed)", "values": [{"measurement": "perturbation of contact residues in the MP region", "setting": "talin F3", "value": "undetectable"}]}
{"molecule": "B1", "values": [{"measurement": "perturbation of contact residues in the MP region", "setting": "β3/PIPKIγ chimera", "value": "markedly reduced"}]}
{"molecule": "B2", "values": [{"measurement": "perturbation of contact residues in the MP region", "setting": "β3/PIPKIγ chimera", "value": "undetectable"}]}
{"molecule": "B3", "values": [{"measurement": "reduction of affinity for the β3 chimeric peptide", "setting": "Talin F3 W359A", "value": "~1000", "unit": "fold"}]}
